Results: the supplement of paper PMC7017272
± gives the standard deviation of the averaged measurements.

Assays:
UT-SCC-24A = assay: relative IC50 (midpoint of the fitted curve; maximal inhibition may be below 50%); higher = less potent; conditions: treatment time: 3 days
Experimental: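 HNSCC cell lines (500 cells/well, 384-well) were cultured on plastic, on top of (2D) or embedded (3D) in Matrigel or human leiomyoma matrix Myogel (500 ug/mL; Myogel 3D mixed with rat collagen I). Cells were treated for 3 days with 5 ten-fold concentrations of each drug, and viability was read by CellTiter-Glo. Viability was normalised to DMSO (0% inhibition) and 100 uM benzethonium chloride (100% inhibition) controls and fitted with the FIMM DSRT pipeline to give IC50 (nM), maximal % inhibition and the drug sensitivity score (DSS). Suffixes _1/_2/_3 on drug names are replicates.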

UT-SCC-106A = assay: relative IC50 (midpoint of the fitted curve; maximal inhibition may be below 50%); higher = less potent; conditions: treatment time: 3 days
How it was run: (§1)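 Three growth formats were used for HPV-negative HNSCC cell lines in 384-well plates at 500 cells/well: bare plastic, wells coated with Matrigel or Myogel (500 µg/mL), and embedding in Matrigel or Myogel plus rat collagen I. Compounds were added at five 10-fold concentrations, and after 3 days CellTiter-Glo 2.0 luminescence was recorded and normalised to vehicle (0.1% DMSO) and cell-killing control wells. IC50, maximal inhibition and drug sensitivity score came from percent-inhibition dose–response fitting in the FIMM pipeline.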

UT-SCC-81 [1] = assay: as above; conditions: treatment time: 3 days
How it was run: as §1

UT-SCC-40 [2] = assay: as above; conditions: treatment time: 3 days
How it was run: as §1

UT-SCC-28 = assay: as above; conditions: culture condition: plastic 2D (no matrix); treatment time: 3 days
How it was run: as §1

UT-SCC-42A [3] = assay: as above; conditions: culture condition: on top of Matrigel; treatment time: 3 days
How it was run: as §1

UT-SCC-24B [4] = assay: as above; conditions: treatment time: 3 days
How it was run: as §1

UT-SCC-42B [5] = assay: as above; conditions: treatment time: 3 days
How it was run: as §1

UT-SCC-14 = assay: as above; conditions: treatment time: 3 days
How it was run: as §1

UT-SCC-73 [6] = assay: as above; conditions: treatment time: 3 days
How it was run: as §1

UT-SCC-44 [7] = assay: as above; conditions: treatment time: 3 days
How it was run: as §1

UT-SCC-8 [8] = assay: as above; conditions: culture condition: embedded in Matrigel; treatment time: 3 days
How it was run: as §1

UT-SCC-81 [9] = assay: maximal % inhibition of viability relative to DMSO; higher = stronger effect; conditions: treatment time: 3 days
Experimental: (§2)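 HNSCC cell lines (500 cells/well, 384-well) were cultured on plastic, on top of (2D) or embedded (3D) in Matrigel or human leiomyoma matrix Myogel (500 ug/mL; Myogel 3D mixed with rat collagen I). Cells were treated for 3 days with 5 ten-fold concentrations of each drug, and viability was read by CellTiter-Glo. Viability was normalised to DMSO and benzethonium chloride controls and fitted with the FIMM DSRT pipeline to give IC50 (nM), maximal % inhibition and DSS. Suffixes _1/_2/_3 are replicates. Only inhibition-mode (IC50) fits are kept.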

UT-SCC-40 [10] = assay: as above; conditions: treatment time: 3 days
Experimental: as §2

UT-SCC-42A [11] = assay: as above; conditions: treatment time: 3 days
Experimental: as §2

UT-SCC-24B [12] = assay: as above; conditions: treatment time: 3 days
Experimental: as §2

UT-SCC-42B [13] = assay: as above; conditions: treatment time: 3 days
Experimental: as §2

UT-SCC-73 [14] = assay: as above; conditions: treatment time: 3 days
Experimental: as §2

UT-SCC-44 [15] = assay: as above; conditions: treatment time: 3 days
Experimental: as §2

UT-SCC-8 [16] = assay: as above; conditions: treatment time: 3 days
Experimental: as §2

[17] = culture condition: embedded in Matrigel
[18] = culture condition: on top of Matrigel
[19] = culture condition: plastic 2D (no matrix)
[20] = culture condition: embedded in Myogel + collagen I
[21] = culture condition: on top of Myogel

CC(=O)Nc1cccc(-n2c(=O)n(C3CC3)c(=O)c3c(Nc4ccc(I)cc4F)n(C)c(=O)c(C)c32)c1 [Trametinib]
relative IC50 (UT-SCC-24A; [17]): 1.4 nM | relative IC50 (UT-SCC-24A; [18]): 1.34 nM | relative IC50 (UT-SCC-24A; [19]): 1.07 nM | relative IC50 (UT-SCC-106A; [17]): 0.942 nM | relative IC50 (UT-SCC-106A; [18]): 1.25 nM | relative IC50 (UT-SCC-106A; [19]): 1.5 nM | relative IC50 (UT-SCC-81 [1]; [20]): 6.59 nM | relative IC50 (UT-SCC-81 [1]; [19]): 7.02 nM | relative IC50 (UT-SCC-40 [2]; [18]): 3.55 nM | relative IC50 (UT-SCC-40 [2]; [21]): 4.8 nM | relative IC50 (UT-SCC-28): 1.42 nM | relative IC50 (UT-SCC-42A [3]): 3.65 nM | relative IC50 (UT-SCC-24B [4]; [17]): 9.83 nM | relative IC50 (UT-SCC-24B [4]; [20]): 9.92 nM | relative IC50 (UT-SCC-24B [4]; [18]): 11.6 nM | relative IC50 (UT-SCC-24B [4]; [21]): 22.7 nM | relative IC50 (UT-SCC-24B [4]; [19]): 7.62 nM | relative IC50 (UT-SCC-42B [5]; [17]): 1.71 nM | relative IC50 (UT-SCC-42B [5]; [18]): 5.67 nM | relative IC50 (UT-SCC-42B [5]; [21]): 12.5 nM | relative IC50 (UT-SCC-14; [17]): 3.5 nM | relative IC50 (UT-SCC-14; [18]): 7.96 nM | relative IC50 (UT-SCC-14; [19]): 17.5 nM | relative IC50 (UT-SCC-73 [6]; [17]): 2.42 nM | relative IC50 (UT-SCC-73 [6]; [21]): 3.31 nM | relative IC50 (UT-SCC-44 [7]; [17]): 1.55 nM | relative IC50 (UT-SCC-44 [7]; [18]): 1.52 nM | relative IC50 (UT-SCC-44 [7]; [19]): 1.46 nM | relative IC50 (UT-SCC-8 [8]): 11.3 nM | maximal % inhibition of viability (UT-SCC-81 [9]; [17]): 84.9 ± 2.4% | maximal % inhibition of viability (UT-SCC-81 [9]; [20]): 24.5 ± 2.6% | maximal % inhibition of viability (UT-SCC-81 [9]; [18]): 78.6 ± 2.9% | maximal % inhibition of viability (UT-SCC-81 [9]; [21]): 27.8 ± 11% | maximal % inhibition of viability (UT-SCC-81 [9]; [19]): 44.1 ± 8.9% | maximal % inhibition of viability (UT-SCC-40 [10]; [17]): 78.07 ± 0.4% | maximal % inhibition of viability (UT-SCC-40 [10]; [20]): 61.7 ± 4.8% | maximal % inhibition of viability (UT-SCC-40 [10]; [18]): 71.7 ± 2.8% | maximal % inhibition of viability (UT-SCC-40 [10]; [21]): 51.9 ± 1.5% | maximal % inhibition of viability (UT-SCC-40 [10]; [19]): 52.2 ± 7.5% | maximal % inhibition of viability (UT-SCC-42A [11]; [17]): 45.4 ± 0.67% | maximal % inhibition of viability (UT-SCC-42A [11]; [20]): 22.1 ± 5.4% | maximal % inhibition of viability (UT-SCC-42A [11]; [18]): 50.3 ± 4.1% | maximal % inhibition of viability (UT-SCC-42A [11]; [21]): 29.4 ± 6.9% | maximal % inhibition of viability (UT-SCC-42A [11]; [19]): 34.7 ± 3.8% | maximal % inhibition of viability (UT-SCC-24B [12]; [17]): 67.1 ± 3.1% | maximal % inhibition of viability (UT-SCC-24B [12]; [20]): 66.5 ± 3.8% | maximal % inhibition of viability (UT-SCC-24B [12]; [18]): 67.53 ± 0.29% | maximal % inhibition of viability (UT-SCC-24B [12]; [21]): 59.1 ± 4.8% | maximal % inhibition of viability (UT-SCC-24B [12]; [19]): 78.8 ± 1.7% | maximal % inhibition of viability (UT-SCC-42B [13]; [17]): 67.8 ± 4.4% | maximal % inhibition of viability (UT-SCC-42B [13]; [18]): 52.2 ± 7.1% | maximal % inhibition of viability (UT-SCC-42B [13]; [21]): 20.8 ± 7.8% | maximal % inhibition of viability (UT-SCC-42B [13]; [19]): 28.8 ± 8% | maximal % inhibition of viability (UT-SCC-73 [14]; [17]): 81.2 ± 1.7% | maximal % inhibition of viability (UT-SCC-73 [14]; [20]): 62.8 ± 12% | maximal % inhibition of viability (UT-SCC-73 [14]; [18]): 76.9 ± 0.9% | maximal % inhibition of viability (UT-SCC-73 [14]; [21]): 63.3 ± 3.6% | maximal % inhibition of viability (UT-SCC-73 [14]; [19]): 70.53 ± 0.25% | maximal % inhibition of viability (UT-SCC-44 [15]; [17]): 66.8 ± 1.4% | maximal % inhibition of viability (UT-SCC-44 [15]; [20]): 23 ± 2.4% | maximal % inhibition of viability (UT-SCC-44 [15]; [18]): 46.1 ± 8.3% | maximal % inhibition of viability (UT-SCC-44 [15]; [21]): 28.4 ± 11% | maximal % inhibition of viability (UT-SCC-44 [15]; [19]): 41.1 ± 9% | maximal % inhibition of viability (UT-SCC-8 [16]; [17]): 61.3 ± 18% | maximal % inhibition of viability (UT-SCC-8 [16]; [20]): 24.5 ± 29% | maximal % inhibition of viability (UT-SCC-8 [16]; [18]): 47.3 ± 24% | maximal % inhibition of viability (UT-SCC-8 [16]; [21]): 41.1 ± 19% | maximal % inhibition of viability (UT-SCC-8 [16]; [19]): 43 ± 23%
